In patent US20050065099A1, “Treatment of mitochondrial diseases” (priority 2003, published 2005):
pEC50: −log10 of the molar value.

Key:
Male C57/BL6 mice = test: MPTP animal model (neurobehavioral outcome); assay type: in vivo; conditions: 30 mg/kg/day ip; for functional deficit produced by MPTP: days 1-3; for functional outcome versus vehicle treated animals: days 1 and 2, comparable to negative control group
Protocol: In vivo evaluation is carried out using mice that have been treated with 1-methyl-4-phenyl-1,2,3,6-tetrahydropyridine (MPTP), a neurotoxin. […] In a number of species, including humans, […] and rodents, MPTP produces an irreversible and severe parkinsonian syndrome which includes virtually all the clinical features of the disease.
Male C57/BL6 mice (Harlan, Ind.), weight 25-30 g, were used in all studies. MPTP-HCl (Sigma) was administered i.p. according to one of the following protocols. The maximum volume which was given per injection is 200 μL. In all studies, animals were euthanized with carbon dioxide and, brains were removed for subsequent determination of dopamine depletion where appropriate.
Animals received 25 mg/kg of MPTP once a day for 5 consecutive days. The end point was 2 days after the final dose.
Animals received 4×20 mg/kg of MPTP at 2 hour intervals. The end point was at either 7 or 14 days.
Animals received 2×40 mg/kg of MPTP with this repeated 16 hours later. The end point was at either 14 or 28 days.
Animals received 25 mg/kg of MPTP, given twice weekly for 5 weeks. The end point was either 1, 3 or 24 weeks after the final dose.
Compound efficacy was examined with the use of neurobehavioral models. These models allowed the determination of a given compound's ability to reverse the motor deficits seen with MPTP treatment.
All animals received pre-training for the individual model and a baseline reading was obtained one day prior to the commencement of MPTP treatment.
The open field test was carried out in a clear, acrylic open box 60 cm×60 cm. The base of the box was marked into a 5×5 grid of […] squares. Animals were individually placed in the box and allowed to roam free. The number of squares an animal crossed in a 90 second time period was recorded. In order to be scored, the animal must either have had all four limbs within a given square or, all four limbs must have left a given square.
A tactile stimulus (0.5×0.5 cm square of “sticky tape”) was applied to each side of the animal's face and the time taken to remove it is recorded. The following measurements were recorded: • a. Latency to contact left side tape • b. Latency to contact right side tape • c. Order of side contacted (left vs. right) • d. Latency to remove left side tape • e. Latency to remove right side tape Pole Test
A rough surfaced metal pole (diameter 8 mm, height 50 cm) protruding from a cage filled with animal bedding was used for this test. Animals were placed head upwards at the top of the pole. They were required to turn and descend face downwards and the time taken for this was recorded (latency to reach bedding). Timing was started when the individual animal gripped the top of the pole and was stopped when all four limbs contacted the bedding.
All test compounds were administered ip. The maximum volume which was given per injection was 200 μL. Compounds were dosed up to twice daily, two days prior and 7 days post MPTP treatment.
A baseline reading was taken for each animal one day prior to MPTP treatment. All subsequent readings were normalized to the individual animal's baseline. Values were expressed as a percent baseline.
Data was percent baseline and expressed as mean±std dev: […]
Compound and vehicle given for 9 days in total, 2 days prior to MPTP and 7 days after MPTP treatment. L-DOPA given 1 hour prior to the pole test, each day.

FRDA fibroblasts = test: FRDA fibroblast assay for protection from oxidative stress; assay type: cell-based; conditions: Homo sapiens, 24 h preincubation, 1 mM BSO, compared to untreated FRDA fibroblasts, read-out: EC50 for reduction of cell death in FRDA fibroblasts
Text: A cellular assay using FRDA-patient derived fibroblasts (as described by Jauslin, M L et al, Human Molecular Genetics 11; 3055-3063 (2002)); is used to determine the cell protecting effect of the test compounds by analyzing survival of dermal fibroblasts taken from FRDA patients and unaffected normal donors under conditions of partial GSH depletion. Exposure of FRDA fibroblasts to BSO (L-buthionine (S,R)-sulfoximine) under conditions of restricted selenium causes depletion of cellular glutathione (GSH) and severe plasma membrane damage leading to cell death. Preincubation with the test compounds before the addition of BSO is used to determine if they can protect FRDA cells from BSO-mediated cell death.
Primary fibroblasts were derived from donors with a molecular diagnosis of FRDA and control donors with no mitochondrial disease. Lines F2, C2 and C3 were obtained from Coriell Cell Repositories (Camden, N.J., USA; catalog #'s GM04078, GM 08402 and GM08399, respectively). All cell types were diagnosed at the molecular level for intronic GAA triplet repeat length in the trataxin gene using a PCR-based method, according to methods known in the art. […] The cells were seeded in microtiter plates at a density of 4000 cells per 100 μl in growth medium consisting of 25% (v/v) M199 EBS and 64% (v/v) MEM EBS without phenol red (Bioconcept, Allschwil, Switzerland) supplemented with 10% (v/v) fetal calf serum (PAA Laboratories, Linz, Austria), 100 U/ml penicillin, 100 μg/ml streptomycin (PAA Laboratories, Linz, Austria), 10 μg/ml insulin (Sigma, Buchs, Switzerland), 10 μg/ml EGF (Sigma, Buchs, Switzerland), 10 μg/ml bFGF (PreproTech, Rocky Hill, N.J., USA) and 2 mM glutamine (Sigma, Buchs, Switzerland). The cells were incubated in the presence of the various test compounds for 24 h before addition of 1 mM BSO (L-buthionine (S,R)-sulfoximine).
Cell viability was measured after the first signs of toxicity appeared in the BSO-treated controls (typically after 16-48 h). The cells were stained for 60 min at room temperature in PBS with 1.2 μm calceinAM and 4 μm ethidium homodimer (Live/Dead assay, Molecular Probes, Eugene, Oreg., USA). Fluorescence intensity was measured with a Gemini Spectramax XS spectrofluorimeter (Molecular Devices, Sunnyvale, Calif., USA) using excitation and emission wavelengths of 485 and 525 nm, respectively.

[1] = tested on: dopaminergic neuronal cell line; test: High glutamate-induced oxidative stress assay (HGOS); assay type: cell-based; conditions: Mus musculus; 30 mM glutamate, 16 hrs, Cell Tracker Green; read-out: EC50 for protection against HGOS cell injury and cell death
Text: Protection against redox stress can be further evaluated in cell culture using high glutamate induced oxidative stress (HGOS) in mouse dopaminergic cell lines. The cytotoxic effect of glutamate is not due to excitotoxicity, as this cell line is devoid of inotropic glutamate receptors. Rather, the glutamate-induced toxicity of dopaminergic cells is associated with an inhibition of cystine transport which subsequently leads to depletion of intracellular glutathione (GSH) levels (Murphy T. H., et al. Neuron 2, 1547-1558, 1989), activation of neuronal 12-lipoxygenase (Li, Y. et al., Neuron 19,453-463, 1997), increased ROS production (Tan S. et al., J. Cell Biol. 141, 1423-1432, 1998) and elevated intracellular Ca^2+ (Li, Y. et al., see supra). Some molecules were measured for their ability to protect such cells against glutamate-induced stress and the assay is detailed in Examples.
This procedure was used to induce high glutamate-induced oxidative stress (HGOS) in a dopaminergic neuronal cell line. Using this assay the potency and efficacy of test articles against HGOS neuronal cell injury and cell death was established in a high throughput manner.
The cells were seeded into 96-well plates at a density of 2000 per well and left to grow for 72 hours in a 33° C. incubator with 5% CO2 in air atmosphere. The passage number of the cells for each assay experiment were no later than p11 in order to minimize experimental variation.
All compounds were dissolved in DMEM-No Glu containing 1 mM glucose, 30 mM glutamate and 1× Pen/Strep. DMEM-No Glu with 1 mM glucose and 1×P/S was used as the negative control, DMEM-No Glucose with 1 mM glucose, […] was used as a positive control and 100 μM Glutathione was added to the positive control as a standard. All of the procedures for this involving the making and dilution of compounds were performed using aseptic conditions and with minimal light.
The plates were removed from the incubator and examined under the microscope for morphological appearance and density. Using an aseptic technique and an 8-channel aspirator the media was carefully removed from the cells and replaced with 200 μl of 1×HBSS. This was done as quickly as possible to prevent the cells drying out. The plates were then placed in the humidified 37° C. incubators of the Biomek 2000 Side Loader. Four plates were washed at a time so as to minimize the time that the cells were sitting in 1×HBSS prior to addition of the compound test solution.
The Beckman Biomek workstations were used to load the compounds and controls from the mother plates onto the cell plates that were prewashed with HBSS under sterile conditions. The plates were incubated in the upper HTS incubator at 37° C. in 5% CO2 for exactly 16 hrs. The following day, using the Beckman Biomek workstations, the plates were removed from the incubator. Using Cell Tracker Addition, the compounds were removed from the plates, washed once with […] of pre-warmed 1×HBSS and then 100 μL of 5 μM Cell Tracker Green was added to each well. The plates were incubated at 37° C. for 30 min to allow the dye to enter the cell and be cleaved by the esterases. After washing the cells twice with prewarmed 1×HBSS, the plates were read with the 485 excitation; 538 emission filter pair on a Fluoroskan.

| Structure (SMILES) | functional deficit produced by MPTP (Male C57/BL6 mice) | functional outcome versus vehicle treated animals (Male C57/BL6 mice) | pEC50 (FRDA fibroblasts) | pEC50 [1] |
| --- | --- | --- | --- | --- |
| CC(C)=CCc1c(O)c(C)c(C)c2c1CCC(C)(CCC(=O)O)O2 (centres unmarked) [3-[6-Hydroxy-2,7,8-trimethyl-5-(3-methyl-but-2-enyl)-chroman-2-yl]-propionic acid] | significantly reduced | significantly better | – | – |
| Cc1cc(O)cc2c1OC(C)(CCC(=O)O)CC2 (centres unmarked) [3-(6-Hydroxy-2,8-dimethyl-chroman-2-yl)-propionic acid] | significantly reduced | significantly better | 5.22 to 8.00 | – |
| COC(=O)CSCc1c(O)c(C)c(C)c2c1CCC(C)(C)O2 [(6-Hydroxy-2,2,7,8-tetramethyl-chroman-5-ylmethylsulfanyl)-acetic acid methyl ester] | significantly reduced | significantly better | – | ≥ 5.30 |
| CC(C)=CCc1c(O)c(C)c(C)c2c1CCC(C)(C)O2 [2,2,7,8-Tetramethyl-5-(3-methyl-but-2-enyl)-chroman-6-ol] | significantly reduced | significantly better | – | – |
| Cc1c(O)cc2c(c1C)OC(C)(C)C=C2 [2,2,7,8-Tetramethyl-2H-chromen-6-ol] | significantly reduced | significantly better | 5.22 to 8.00 | – |
| COC(=O)CCC1(C)CCc2c(Br)c(O)c(C)c(C)c2O1 (centres unmarked) [3-(5-Bromo-6-hydroxy-2,7,8-trimethyl-chroman-2-yl)-propionic acid methyl ester] | significantly reduced | significantly better | 5.22 to 8.00 | ≥ 5.30 |
